Measured values: US20180021773A1, “ASSAY DEVICES, METHODS FOR CARRYING OUT ASSAYS, ASSAY KITS AND METHOD FOR MANUFACTURING ASSAY DEVICES” (Loughborough University, priority 2014, published 2018)

Columns and labels:
[1] = tested on: Staphylococcus Epidermidis ATCC 12228; experiment: Colourimetric enzymatic assays in loaded capillaries; assay type: cell-based; details: overnight at 37° C.; substrate per capillary from Table 4, 500 mg/mL; yellow = positive reaction
Experimental: (§1) An experiment was conducted to test a combination of sugar fermentation and enzymatic assays for the specific identification of bacteria. Individual 200 micron internal diameter capillaries coated with cross-linked HMW PVA were individually loaded with different reagents to perform a combination of colourimetric sugar fermentation and enzymatic assays as shown in Table 4. [table] […] Staphylococcus Epidermidis ATCC 12228 or Staphylococcus Saprophyticus ATCC 15305 resuspended in Microbatch Staph 12 S suspending media. The strips were incubated overnight at 37° C., and positive/negative identification of assays on individual capillaries was performed by imaging the strips with CCD camera. Enzyme detection: enzymatic substrates are normally colourless. If bacteria have the targeted enzymes, the substrates will be hydrolysed, releasing compounds that will produce a yellow colour indicating a positive reaction.

[2] = tested on: Staphylococcus Aureus ATCC 25923; experiment: as above; assay type: cell-based; details: overnight at 37° C.; substrate per capillary from Table 4, 500 mg/mL; yellow = positive reaction
Experimental: as §1

E. coli = experiment: Sugar fermentation in sugar loaded test strips with Phenol Red Broth; assay type: cell-based; details: sugar loaded from 1 g/L solution; 1 h at 37 degrees C; yellow = reduction in pH
Experimental: (§2) The ability of bacteria to ferment specific sugars is also frequently used to distinguish similar species of bacteria. For example, E. coli are able to ferment lactose and glucose and produce acid when they are incubated in the presence of either of these sugars.
(§3) A 10 bore FEP microcapillary film was internally coated with cross-linked PVA. Test microcapillary film was prepared by first loading the capillaries with either glucose or lactose by filling the capillaries with a 1 g/L solution in water and incubating for 5 minutes. The sugar solutions were then removed and the microcapillary film air dried using a syringe to pass air repeatedly through the capillaries. Three test strips were cut from each of the glucose or lactose loaded microcapillary film and dipped into one of 3 different aqueous samples. The first sample was a control sample that contained no bacteria. The second sample contained a suspension of E. coli. The third sample contained a suspension of Salmonella typhimurium. All three aqueous samples also contained Phenol Red Broth (Casein peptone 1 g/L; NaCl 0.5 g/L; Phenol Red 1 g/L). The samples all started out with a pH of 7 and were bright red in colour. When dipped, each aqueous sample was rapidly drawn up into the test strips, and the microcapillaries were clearly bright red in colour due to the Phenol Red indicator dye in the sample. […]

Salmonella typhimurium = experiment: as above; assay type: cell-based; details: sugar loaded from 1 g/L solution; 1 h at 37 degrees C; yellow = reduction in pH
Experimental: as §2, §3

[3] = tested on: Staphylococcus Saprophyticus ATCC 15305; experiment: Colourimetric fermentation assays in loaded capillaries; assay type: cell-based; details: overnight at 37° C.; reagent per capillary from Table 4; orange to yellow = fermentation, orange to purple = arginine/urea degradation
Experimental: (§4) An experiment was conducted to test a combination of sugar fermentation and enzymatic assays for the specific identification of bacteria. Individual 200 micron internal diameter capillaries coated with cross-linked HMW PVA were individually loaded with different reagents to perform a combination of colourimetric sugar fermentation and enzymatic assays as shown in Table 4. [table] […] Staphylococcus Epidermidis ATCC 12228 or Staphylococcus Saprophyticus ATCC 15305 resuspended in Microbatch Staph 12 S suspending media. The strips were incubated overnight at 37° C., and positive/negative identification of assays on individual capillaries was performed by imaging the strips with CCD camera. Sugar Fermentation: if a sugar is fermented, bacteria will produce acid end products and the pH of the medium will drop. The media contains a pH indicator to indicate acid production. A positive test for sugar fermentation consists of a colour change from orange to yellow, indicating a pH change to acidic. Arginine and Urea degradation (detection of Arginine dihydrolase/Urease): when arginine or urea are present, the pH of the medium rises. Accordingly, a positive test for detection of arginine dihydrolase or urease consists of a colour change from orange to purple indicating a pH change to alkaline.

[4] = tested on: Staphylococcus Aureus ATCC 25923; experiment: as above; assay type: cell-based; details: overnight at 37° C.; reagent per capillary from Table 4; orange to yellow = fermentation, orange to purple = arginine/urea degradation
Experimental: as §4

[5] = tested on: Staphylococcus Epidermidis ATCC 12228; experiment: as above; assay type: cell-based; details: overnight at 37° C.; reagent per capillary from Table 4; orange to yellow = fermentation, orange to purple = arginine/urea degradation
Experimental: as §4

[6] = tested on: Staphylococcus Saprophyticus ATCC 15305; experiment: Colourimetric enzymatic assays in loaded capillaries; assay type: cell-based; details: overnight at 37° C.; substrate per capillary from Table 4, 500 mg/mL; yellow = positive reaction
Experimental: as §1

[7] = ONPG released into water from loaded cross-linked PVA coated strips, enzymatic endpoint analysis at 420 nm; assay type: physicochemical; details: 1 hour, 60 mm strips
Experimental: Reagent loading and release from the hydrophilic layer was quantified using a fluorescent dye and colorimetric enzyme substrates. For this purpose, an FEP microcapillary film was coated with cross-linked PVA and loaded with two assay reagents, the enzymatic substrate ortho-nitrophenyl-β-galactoside (ONPG) which produces a yellow colour in the presence of beta-galactosidase, and the fluorescent dye fluorescein. Loading was performed by incubation with a water or dimethylformamide (DMF)-based reagent solution for between 5 minutes and 2 h, and subsequent removal of the loading solution using a syringe, followed by air drying of the capillaries by repeated aspiration of air through the film using a syringe. Following loading of the capillaries, the amount of reagent loaded was quantified using three different methods.
The water taken up was then removed using a syringe and ONPG concentration measured by enzymatic endpoint analysis in a microwell plate well through the addition of an excess of beta-galactosidase enzyme and monitoring absorbance at 420 nm using a microwell plate reader. Released concentrations were determined by comparison of absorbance with a calibration curve of known concentrations of ONPG.

[8] = ONPG released into water from strips with different hydrophilic coatings; assay type: physicochemical; details: loaded 150 g/L, 5 minute
Experimental: The polymer solutions were then removed from the microcapillary film and the film dried by repeatedly aspirating air through the film strip using a syringe. An FEP microcapillary film coated with cross-linked PVA was used as a control. 8 cm lengths of each polymer coated film were then loaded with ONPG reagent by dipping the film into a 150 g/L ONPG solution. After a 5 minute incubation, the ONPG solution was removed and capillaries were dried using a syringe. The test films were then dipped into water, and the amount of ONPG reagent released into the water measured by a colorimetric endpoint determination using beta-galactosidase enzyme. With the cross-linked PVA coated test strips, 7.8 mg/ml ONPG was released, with gelatine coated test strips 7.2 mg/ml ONPG was released, and with HPMC coated test strips 21.5 mg/ml ONPG was released.

[9] = tested on: E. coli (ATCC accession number: 25922); experiment: ONPG assay in 96 well-plates (comparison); assay type: cell-based; details: ONPG 1 mg/ml, overnight incubation
Experimental: (§5) A 10 bore FEP microcapillary film was internally coated with cross-linked PVA. Test microcapillary film was prepared by first loading the capillaries with ONPG by filling the capillaries with a 150 mg·mL^−1 ONPG substrate solution in DMF and incubating for 5 minutes. The substrate solution was then removed and the microcapillary film air dried using a syringe to pass air repeatedly through the capillaries. Seven test strips were cut from this ONPG loaded microcapillary film and dipped into one of 7 different aqueous samples. These comprised water (1); sterile Luria-Bertani lysogeny broth (LB) media (2); a 0.1 U/μl solution of β-galactosidase enzyme (3); an overnight culture of E. coli (ATCC accession number: 25922) suspended in LB (4); an overnight culture of Salmonella typhimurium (strain SL3261) suspended in LB (5); an overnight culture of E. coli suspended in a phosphate buffer saline PBS (6); an overnight culture of S. typhimurium suspended in PBS (7). Negative control test strips consisting of PVA coated cross-linked PVA but not loaded with ONPG were dipped into the same samples (referred hereafter as no substrate). As a comparison, similar assays were also performed in 96 well-plates with ONPG substrate solution (final concentration 1 mg·ml^−1) added to the different samples in a final volume of 100 μl.

[10] = tested on: Salmonella typhimurium (strain SL3261); experiment: ONPG assay in 96 well-plates (comparison); assay type: cell-based; details: ONPG 1 mg/ml, overnight incubation
Experimental: as §5

[11] = tested on: E. coli (ATCC accession number: 25922); experiment: ONPG loaded test strips dipped into bacterial culture, yellow colour; assay type: cell-based; details: IPTG-cultured (1 mM, 3 hours); 1 hour incubation at 37 degrees C
Experimental: as §5, with “μl. […]” for “μl.”

[12] = tested on: Salmonella typhimurium (strain SL3261); experiment: as above; assay type: cell-based; details: IPTG-cultured (1 mM, 3 hours); 1 hour incubation at 37 degrees C
Experimental: as §5, with “μl. […]” for “μl.”

[13] = ONPG loaded in strips, determined by dipping into beta-galactosidase solution, absorbance at 420 nm; assay type: physicochemical; details: loaded 5 minutes with 150 mg/ml in DMF; cross-linked PVA; 1 hour with beta-galactosidase 0.2 U/μL
Experimental: Secondly, the concentration of loaded ONPG was determined inside the capillary film by dipping an FEP microcapillary film coated with cross-linked PVA, and loaded for 5 minutes with 150 mg/ml ONPG dissolved in DMF, into aqueous solutions of beta-galactosidase enzyme (at 0.2 U/μL). The solution was drawn up into test strips, and incubated for 1 hour to allow complete enzymatic conversion of the loaded ONPG. Subsequently, solution was removed from MCF test strips using a syringe and absorbance read using a microplate reader at 420 nm, and absorbance compared to a calibration curve of known concentrations of enzymatically converted ONPG.

O=C(O)[C@H]1O[C@@H](Oc2ccc([N+](=O)[O-])cc2)[C@H](O)[C@@H](O)[C@@H]1O [4-Nitrophenyl β-D-glucuronide]
colour, enzymatic assays [1]: Y | colour, enzymatic assays [2]: Y

OC[C@H]1O[C@@H](O[C@H]2[C@H](O)[C@@H](O)C(O)O[C@@H]2CO)[C@H](O)[C@@H](O)[C@H]1O (stereo partly drawn) [lactose]
colour of sugar loaded test strips (Phenol Red) (E. coli): turned yellow | colour of sugar loaded test strips (Phenol Red) (Salmonella typhimurium): remained bright red

OC[C@@H](O)[C@@H](O)[C@H](O)[C@H](O)CO [Mannitol]
colour, fermentation assays [3]: Y | colour, fermentation assays [4]: Y

O=[N+]([O-])c1ccc(OP(=O)(O)O)cc1 [4-Nitrophenyl phosphate]
colour, enzymatic assays [2]: Y

OC[C@H]1O[C@@](CO)(O[C@H]2O[C@H](CO)[C@@H](O)[C@H](O)[C@H]2O)[C@@H](O)[C@@H]1O [Sucrose]
colour, fermentation assays [5]: Y | colour, fermentation assays [3]: Y | colour, fermentation assays [4]: Y

CC(=O)N[C@H]1C(O)O[C@H](CO)[C@@H](O)[C@@H]1O (stereo partly drawn) [N-Acetyl Glucosamine]
colour, fermentation assays [4]: Y

OC[C@H]1O[C@H](O[C@H]2O[C@H](CO)[C@@H](O)[C@H](O)[C@H]2O)[C@H](O)[C@@H](O)[C@@H]1O [Trehalose]
colour, fermentation assays [3]: Y | colour, fermentation assays [4]: Y

OC[C@H]1O[C@H](O[C@H]2[C@H](O)[C@@H](O)[C@H](O)O[C@@H]2CO)[C@H](O)[C@@H](O)[C@@H]1O [Maltose]
colour, fermentation assays [5]: Y | colour, fermentation assays [3]: Y | colour, fermentation assays [4]: Y

O=[N+]([O-])c1ccc(O[C@@H]2O[C@H](CO)[C@H](O)[C@H](O)[C@H]2O)cc1 [4-Nitrophenyl β-D-galacto-pyranoside]
colour, enzymatic assays [6]: Y

N=C(N)NCCC[C@H](N)C(=O)O [Arginine]
colour, fermentation assays [4]: O/P

O=[N+]([O-])c1ccccc1O[C@@H]1O[C@H](CO)[C@H](O)[C@H](O)[C@H]1O [ONPG, ortho-nitrophenyl-β-galactoside]
Released Concentration ([7]; Loading concentration 0.5 mg/ml In Water): 0.07 mg/mL | Released Concentration ([7]; Loading concentration 1.0 mg/ml In Water): 0.01 mg/mL | Released Concentration ([7]; Loading concentration 5.0 mg/ml In Water): 0.06 mg/mL | Released Concentration ([7]; Loading concentration 150.0 mg/ml In DMF): 4.67 mg/mL | ONPG released ([8]; HPMC coated test strips): 21.5 mg/mL | ONPG released ([8]; cross-linked PVA coated test strips): 7.8 mg/mL | ONPG released ([8]; gelatine coated test strips): 7.2 mg/mL | colour of wells [9]: turned yellow | colour of wells [10]: E. coli but not S. typhimurium suspensions turned yellow | colour of ONPG-loaded test strips [11]: a yellow colour was observed | colour of ONPG-loaded test strips [12]: no yellow colour was observed | average concentration loaded within test strips [13]: 3.4 mg/mL
